Each block holds one compound with its values, some of them ahead of it.
Columns and labels:
RBC sickling [1] = assay: Sickle inhibition in SS blood suspensions under hypoxia (2.5% oxygen); format: cell-based; conditions: Homo sapiens, 2 mM compound, homozygous SCD blood, 4 biological replicates
Protocol: All compounds (Comp 1-13) and comparator molecules (VZHE-039, PP-14, INN-310, and Voxelotor) were evaluated following established procedures. Blood samples from individual donors with homozygous SCD (obtained with informed consent) were diluted using Hemox buffer solution with the addition of glucose (10 mM) and BSA (0.2%) to adjust hematocrit of the blood suspensions to 20%, which standardizes the procedure to normalize the ratio of RBCs to drug, for assay consistency and reproducibility. Briefly, blood suspensions were incubated under room air in the presence of various concentrations of test compounds (0-2 mM) at 37° ° C. for 1 hour in 96-well round bottom plates. Subsequently, the suspensions were incubated with a hypoxic gas mixture (2.5% Oxygen gas/balance Nitrogen gas) at 37° C. for up to 2 hours prior to fixation with 2% glutaraldehyde solution without exposure to air. The fixated blood aliquots were evaluated by microscopic morphological analysis (image analysis on Image J software) to identify the proportion of sickled and non-sickled RBCs, and sickle inhibition calculated based on the % change from negative control (DMSO).

RBC sickling [2] = assay: Oxygen-independent sickle inhibition in SS blood suspensions under anoxia (100% nitrogen); format: cell-based, human; conditions: for inhibition at 2000 µM: Homo sapiens, 2 mM compound, homozygous SCD blood, 4 biological replicates; for inhibition at 2000 µM / polymer destabilizing effects (sickle inhibition in anoxia), in words: anoxia; for polymer destabilizing effects in anoxia time-course experiments, in words: up to 2.5 h
Protocol: To establish oxygen-independent sickle inhibition, the incubation chamber was subsequently opened and exposed to room air for 15 minutes to ensure complete re-oxygenation and reversal of the sickled cells to normal round cells. Reversal was confirmed by microscopy. The incubation chamber was then closed, and the assay was repeated with incubation in 100% nitrogen gas for 1 hour (for screening), or up to 2.5 h (for time-course studies), with collection and fixation of blood aliquots at defined intervals. Aliquot samples were again subjected to microscopic morphological analysis of bright field images to identify the proportion of sickled and non-sickled cells, and sickle inhibition calculated.

[3] = 14-day repeat-dose oral pharmacokinetics in rats; format: in vivo, rat; conditions: 14-day repeat oral doses
Protocol: (§1) Repeat oral doses of each compound were administered by oral gavage for 14 days to male and female SD rats (n=3). […] Steady state exposures for the final dosing interval on Day 14 were similar to total compound exposure from single-dose PK.
(§2) Repeat doses of each compound were administered once daily as oral suspensions by gavage in 0.5% carboxy methylcellulose for 14 days at 100 mg/kg. Whole blood was collected at 7 time-points for up to 24 hours during the final dosing interval on Day 14. Clinical observations, body weights, and food consumption were recorded throughout the 14 day study. Clinical chemistry and hematologic parameters were assessed, and histopathology was performed on organs after 14 days of exposure to study drug.

[4] = ADME properties / oral bioavailability; conditions: in vivo
Hb = molecular target: T1, Hb (Homo sapiens, UniProt P69905); assay: Occupancy/dose-dependent p50 shift in human non-sickle blood; format: cell-based; conditions: compared to Voxelotor at equivalent drug-Hb occupancy levels
T1 construct: Hemoglobin modification, studies using non-sickling AA blood; from tissue; host or cells: non-sickling AA blood (red cells)
Protocol: Non-sickling human blood was incubated with test compounds at 0.25-2 mM concentrations at 37 °C for 1 hour in 96-well round bottom plates. At conclusion, RBCs were washed once with PBS, followed by lysis with deionized water. Approximately 100 μl aliquots of individual lysates were added to 3 mL of 0.1M potassium phosphate buffer, pH 7.0 in a cuvette and subjected to hemoximetry analysis using a Hemox™ Analyzer (TCS Scientific Corp.) as previously described. Change in p50 values (Δp50) was calculated by subtracting the p50 values of treated samples from the value of the control sample and expressing the difference as a percentage of control p50 values.

[5] = Single-dose oral pharmacokinetics in rats; format: in vivo, rat
Protocol: Single-dose pharmacokinetics (PK) in male Sprague Dawley (SD) rats (n=4) were assessed for each compound, and the maximum or peak whole blood concentration and area under the curve are shown in Table 5.
Single doses of each compound were administered as oral suspensions by gavage in 0.5% carboxy methylcellulose at 100 mg/kg. Whole blood levels were collected for at least 72 hours after dose administration. Bioanalyses were performed with liquid chromatography-tandem mass spectrometry […].

[6] = 14-day repeat-dose safety (clinical observations, histopathology) in rats; format: in vivo, rat; conditions: 100 mg/kg oral once daily for 14 days
Protocol: as §1, §2

T1 sequence (P69905 2-142 limits assumed): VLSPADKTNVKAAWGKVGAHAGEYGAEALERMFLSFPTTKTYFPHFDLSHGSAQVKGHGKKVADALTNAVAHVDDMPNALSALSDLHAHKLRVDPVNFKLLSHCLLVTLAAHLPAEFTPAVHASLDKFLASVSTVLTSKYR
T1 sequence (P68871 2-147 partner limits assumed): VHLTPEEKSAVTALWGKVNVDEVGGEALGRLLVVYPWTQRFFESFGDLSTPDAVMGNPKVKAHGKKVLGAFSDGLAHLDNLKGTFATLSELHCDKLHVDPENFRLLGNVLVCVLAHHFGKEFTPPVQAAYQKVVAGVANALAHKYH

SMILES: COc1ccc(OCc2cccc(CO)n2)c(C=O)c1 [TD-7, reference compound]
- inhibition at 2000 µM (RBC sickling [1]): 80.6 ± 5.8%
- inhibition at 2000 µM (RBC sickling [2]): 20.4 ± 2.9%

SMILES: O=Cc1c(O)cccc1OCc1ncccn1 [Comp 11, 2-hydroxy-6-(pyrimidin-2-ylmethoxy)benzaldehyde]
- inhibition at 2000 µM (RBC sickling [1]): 67.4 ± 18.2%
- inhibition at 2000 µM (RBC sickling [2]): 45.1 ± 10.8%

SMILES: O=Cc1c(O)cccc1OCc1ccccc1 [Reference A, 2-(benzyloxy)-6-hydroxybenzaldehyde, reference compound]
- polymer destabilizing effects (sickle inhibition in anoxia), in words (RBC sickling [2]): potent polymer destabilizing effects

SMILES: O=Cc1c(O)cccc1OCc1cccnc1Cl [Comp 7, 2-((2-chloropyridin-3-yl)methoxy)-6-hydroxybenzaldehyde]
- inhibition at 2000 µM (RBC sickling [1]): 36.1 ± 19.7%
- inhibition at 2000 µM (RBC sickling [2]): 9.4 ± 10.7%

- absorption, distribution, metabolism and elimination (ADME) properties [4]: acceptable
- changes in p50 of Hb in human blood (Hb): relatively weak changes in p50
SMILES: O=Cc1c(O)cccc1OCc1ccccn1 [Comp 2, 2-hydroxy-6-(pyridin-2-ylmethoxy)benzaldehyde]
- oral exposure levels, repeat dose, in words [3]: greatest oral exposure levels observed to date
- oral exposure levels, single dose, in words [5]: greatest oral exposure levels observed to date
- inhibition at 2000 µM (RBC sickling [1]): 72.8 ± 13%
- clinical and histopathologic changes after 14 days of exposure [6]: No clinical or histopathologic changes
- inhibition at 2000 µM (RBC sickling [2]): 63.2 ± 17.2%
- polymer destabilizing effects (sickle inhibition in anoxia), in words (RBC sickling [2]): most potent polymer destabilizers discovered to date
- polymer destabilizing effects in anoxia time-course experiments, in words (RBC sickling [2]): most potent and sustained polymer destabilizing effects observed to date

SMILES: O=Cc1c(F)cc(F)cc1OCc1ccccn1 [Comp 9, 2,4-difluoro-6-(pyridin-2-ylmethoxy)benzaldehyde]
- inhibition at 2000 µM (RBC sickling [1]): 68.1 ± 29.8%
- inhibition at 2000 µM (RBC sickling [2]): 0%
- polymer destabilizing effects (sickle inhibition in anoxia), in words (RBC sickling [2]): completely negates the polymer destabilization effects

- absorption, distribution, metabolism and elimination (ADME) properties [4]: acceptable
- changes in p50 of Hb in human blood (Hb): relatively weak changes in p50
SMILES: O=Cc1c(O)cccc1OCc1cccnc1 [Comp 1, 2-hydroxy-6-(pyridin-3-ylmethoxy)benzaldehyde]
- oral exposure levels, single dose, in words [5]: greatest oral exposure levels observed to date
- inhibition at 2000 µM (RBC sickling [1]): 74.8 ± 15.9%
- clinical and histopathologic changes after 14 days of exposure [6]: No clinical or histopathologic changes
- inhibition at 2000 µM (RBC sickling [2]): 71.9 ± 16%
- polymer destabilizing effects (sickle inhibition in anoxia), in words (RBC sickling [2]): most potent polymer destabilizers discovered to date
- polymer destabilizing effects in anoxia time-course experiments, in words (RBC sickling [2]): most potent and sustained polymer destabilizing effects observed to date

SMILES: O=Cc1c(O)cccc1OCc1cncnc1 [Comp 10, 2-hydroxy-6-(pyrimidin-5-ylmethoxy)benzaldehyde]
- inhibition at 2000 µM (RBC sickling [1]): 76.6 ± 10.9%
- inhibition at 2000 µM (RBC sickling [2]): 75.6 ± 18.5%

SMILES: O=Cc1c(O)cccc1OCc1ncccc1Cl [Comp 8, 2-((3-chloropyridin-2-yl)methoxy)-6-hydroxybenzaldehyde]
- inhibition at 2000 µM (RBC sickling [1]): 69.7 ± 8%
- inhibition at 2000 µM (RBC sickling [2]): 18.3 ± 8.4%

SMILES: O=Cc1c(OCc2cccnc2)ccc(F)c1O [Comp 12, 3-fluoro-2-hydroxy-6-(pyridin-3-ylmethoxy)benzaldehyde]
- inhibition at 2000 µM (RBC sickling [1]): 68.6 ± 12%
- inhibition at 2000 µM (RBC sickling [2]): 28.7 ± 6.9%
- polymer destabilizing effects (sickle inhibition in anoxia), in words (RBC sickling [2]): significantly reduced the potency of polymer inhibition

SMILES: O=Cc1c(O)cccc1OCc1cccnc1F [Comp 6, 2-((2-fluoropyridin-3-yl)methoxy)-6-hydroxybenzaldehyde]
- inhibition at 2000 µM (RBC sickling [1]): 67.1 ± 5.8%
- inhibition at 2000 µM (RBC sickling [2]): 32.6 ± 28.5%

SMILES: COc1ccc(OCc2ccccn2)c(C=O)c1 [INN-310, reference compound]
- inhibition at 2000 µM (RBC sickling [1]): 69.9 ± 20%
- inhibition at 2000 µM (RBC sickling [2]): 17.9 ± 7%
- polymer destabilizing effects (sickle inhibition in anoxia), in words (RBC sickling [2]): only weak potency in anoxia

SMILES: O=Cc1c(F)cc(F)cc1OCc1ncccc1F [Comp 13, 2,4-difluoro-6-((3-fluoropyridin-2-yl)methoxy)benzaldehyde]
- inhibition at 2000 µM (RBC sickling [1]): 63.6 ± 24.3%
- inhibition at 2000 µM (RBC sickling [2]): -0.5 ± 2.7%
- polymer destabilizing effects (sickle inhibition in anoxia), in words (RBC sickling [2]): completely negates the polymer destabilization effects

- absorption, distribution, metabolism and elimination (ADME) properties [4]: acceptable
- changes in p50 of Hb in human blood (Hb): relatively weak changes in p50
SMILES: O=Cc1c(O)cccc1OCc1ncccc1F [Comp 5, 2-((3-fluoropyridin-2-yl)methoxy)-6-hydroxybenzaldehyde]
- oral exposure levels, repeat dose, in words [3]: greatest oral exposure levels observed to date
- oral exposure levels, single dose, in words [5]: greatest oral exposure levels observed to date
- inhibition at 2000 µM (RBC sickling [1]): 66.6 ± 9.4%
- clinical and histopathologic changes after 14 days of exposure [6]: No clinical or histopathologic changes
- inhibition at 2000 µM (RBC sickling [2]): 66.5 ± 21.1%

SMILES: CC(C)n1nccc1-c1ncccc1COc1cccc(O)c1C=O [Voxelotor, reference compound]
- inhibition at 2000 µM (RBC sickling [1]): 79.9 ± 6.2%
- inhibition at 2000 µM (RBC sickling [2]): 1.5 ± 5.5%
- polymer destabilizing effects (sickle inhibition in anoxia), in words (RBC sickling [2]): did not demonstrate any sickle inhibition in anoxic conditions

SMILES: O=Cc1c(O)cccc1OCc1cncc(F)c1 [Comp 4, 2-((5-fluoropyridin-3-yl)methoxy)-6-hydroxybenzaldehyde]
- inhibition at 2000 µM (RBC sickling [1]): 64.3 ± 24.5%
- inhibition at 2000 µM (RBC sickling [2]): 69.6 ± 13.4%

SMILES: O=Cc1c(O)cccc1OCc1cccc(CO)n1 [VZHE-039, reference compound]
- inhibition at 2000 µM (RBC sickling [1]): 75.3 ± 14.3%
- clinical and histopathologic changes after 14 days of exposure [6]: Both clinical and histopathologic changes in the liver, including hepatocyte necrosis
- inhibition at 2000 µM (RBC sickling [2]): 68.9 ± 17.7%

SMILES: O=Cc1c(O)cccc1OCc1ccncc1 [Comp 3, 2-hydroxy-6-(pyridin-4-ylmethoxy)benzaldehyde]
- inhibition at 2000 µM (RBC sickling [1]): 54.1 ± 14.7%
- inhibition at 2000 µM (RBC sickling [2]): 26.2 ± 8.6%
